According to patent publication US6635629B2, “3-nitrogen-6,7-dioxygen steroids and uses related thereto” (Inflazyme Pharmaceuticals Ltd., priority 2000, dated 2003):
Values after ≈ are worked out from the molar mass of the structure shown.

Tests used:
[1] = test system: sensitized Brown Norway rats; test: Ovalbumin-induced accumulation of inflammatory cells in lung lavage fluid of sensitized Brown Norway rats; assay type: in vivo, rat; conditions: p.o.
Protocol: The ability of a compound to inhibit the allergen-induced accumulation of inflammatory cells such as eosinophils and neutrophils in the lavage fluid obtained from sensitized animals is indicative of that compound's anti-asthma activity. […] The test is conducted as follows.
Male Brown Norway rats are sensitized to ovalbumin by single intraperitoneal injection of 1 mg ovalbumin adsorbed to 100 mg A(OH)3 (alum) in 1 ml sterile saline (saline control rats receive only sterile saline) on day 1, and allowed to sensitize until day 21. […] Rats are challenged with 0.5% ovalbumin in saline generated using a Devillbis nebulizer for 60 min on day 21.
Forty-eight hrs after challenge, animals are sacrificed with an overdose of intraperitoneally-delivered sodium pentobarbitol and the lungs are lavaged with cold 2×7 ml phosphate buffered saline. The recovered lavage fluid is placed on ice. The bronchoalveolar lavage fluid is centrifuged and the supernatant removed. The pellet is resuspended in phosphate buffered saline at 4° C. Cytospins are prepared and stained for differentiation and enumeration of cell types.
Test compound was administered in 300 μl corn oil (Tables 7 and 8) or water (Table 9), which were used as vehicles. Control animals received 300 μl corn oil or water alone, i.e., no drug. […] A negative value in Table 7, 8, or 9 indicates an exacerbation of the effect over the control animal.

[2] = Pharmacokinetics in the rat; assay type: in vivo; conditions: plasma; for bioavailability: po
[3] = Pharmacokinetics in the monkey; assay type: in vivo; conditions: plasma; for bioavailability: po
[4] = physchem; conditions: water
[5] = test system: rat mast cell line (RBL-2H3); test: Antigen-induced release of hexosaminidase from a rat mast cell line (RBL-2H3); assay type: cell-based; conditions: inhibition of DNP-HSA antigen-induced hexosaminidase release; tested at 0.3, 3, 10 and 30 μM; read-out: Hex IC50
Protocol: The anti-allergic effects of a compound of the present invention was evaluated by measuring its effect on antigen-induced secretion of hexosaminidase from a passively sensitized rat mast cell line. The ability of a test compound to inhibit the release of mast cell granule contents, e.g., histamine and hexosaminidase, is indicative of the anti-allergy and/or anti-asthma activity of the compound. Hexosaminidase is released from the mast cell granule along with histamine and other mediators during antigen challenge. The test is performed as follows.
RBL-2H3 cells are grown in culture and passively sensitized for 1 hour at 37° C. to dinitrophenol (DNP) using anti-human-DNP (IgE). Cells are incubated with test compound for 30 minutes at 37° C. and stimulated with 0.5 μg/ml DNP-HSA (antigen) for 30 minutes. Aliquots of the supernatant are removed and used to measure the amount of hexosaminidase released during challenge with the antigen. […] The effect of each test compound is determined as a percentage of the antigen-induced response (minus background release) obtained in the presence of DMSO alone. These values are used to determine the degrees of inhibition of antigen-induced hexosaminidase release from the cells.

[6] = test system: Jurkat clone E6.1 cells; test: Antigen-induced (anti-CD3 mAb) calcium flux in Jurkat clone E6.1 cells; assay type: cell-based; conditions: 20 μM; anti-CD3 mAb 4 μg/mL; Fura 2AM
Excerpt: Elevation of cytoplasmic calcium concentration is a common and crucial event which follows the activation of many types of cell surface receptors. Increases in intracellular calcium that occur following agonist activation of inositol lipid hydrolysis are the results of calcium release from the endoplasmic reticulum and the influx of calcium through the plasma membrane. Increases in cytosolic calcium concentration are involved in many important cellular responses in the inflammatory process including adhesion, motility, gene expression, proliferation, and degranulation. Changes in intracellular calcium centrations can affect both short and long term cellular responses. An assay method to evaluate a test compound's impact on calcium flux is provided as follows.
The resulting supernatants are discarded and each pellet is washed in 10 mL HBSS. Cell suspensions are accumulated and centrifuged for 5 minutes at 900 RPM to form a cell pellet. The resulting supernatant is discarded and the pellet is resuspended in HBSS at 1×10^7 cells/mL. The cell suspension is transferred to a 20 mm petri dish and incubated at 37° C., 5% CO2 for 20 minutes.
One volume of Fura 2AM is mixed to one volume of detergent Pluronic F127. Cells are labeled with 4 μL of probe solution to each mL of cell suspension. The petri dish is wrapped in aluminum foil to protect from light and placed on a plate shaker for 30 minutes at room temperature.
The following steps are done in the laminar flow hood with the fluorescent lights turned off. The petri dish is removed from the shaker and the labeled cell suspension is transferred to a 15 mL conical tube and washed twice with HBSS as above. The cell pellet is resuspended in 12 mL HBSS and left wrapped in foil for 30 minutes at room temperature. The labeled cell suspension is aliquoted (100 μL/well) into a Dynex 96 well white opaque tissue culture plate. […] Selected compounds were tested for dose related activity. Test samples and activator (anti—CD3 mAb at final concentration of 4 μg/mL, PharMingen) are added manually (50 μL), such that the minimum time to acquire the first data point after stimulation is approximately 30 seconds. The calcium influx response to anti-CD3 mAb is measured as an “end point” assay. The entire plate is read in 100 seconds using a kinetic of 1 second per well.
The plate is read before the addition of anti-CD3 to monitor non-specific effect of samples/drugs. Fluorescence emission is measured at 510 nm with excitation alternating between 340 and 380 every second using an excitation/emission filter pair. Data from these dual wavelengths are represented as a ratio of 2 excitations wavelengths. This ratio is independent of intracellular dye and cell concentrations, enabling real comparison between experiments.

[7] = test system: mouse ear edema; test: Irritant-induced (phorbol 12-myristate 13-acetate) mouse ear edema; assay type: in vivo; conditions: 15 mg/kg orally in 45% β-cyclodextrin in saline; 3 hours after PMA; compared to control animals
Protocol: A number of mice are uniquely identified by placing a mark with an indelible marker on their tail. Mice are dosed orally with 15 mg/kg test compound in 100 μl of 45% β-cyclodextrin in saline. Mice are briefly anaesthesized with 2% halothane, and 2 μg of phorbol 12-myristate 13-acetate in 25 μl of acetone is applied to the inner and outer sides of the left ear of the mouse. Acetone is applied to the right ear of the mouse in the same manner to serve as a vehicle control. Control animals receive the same treatment but without any test compound. After 3 hours, mice are sacrificed by cervical dislocation, and a standard sized biopsy is excised from the ears and weighed to the nearest 1/10th of a mg. Data are analyzed by taking the difference of each left ear from the right ear, and then calculating the % inhibition of edema by (((mean Rx/mean irritant))×100)-100.
For example, compound 83 inhibits irritant-induced mouse ear edema by 38% compared to control animals.

[8] = Metabolic stability in human liver S9 fractions; assay type: in vitro ADME; conditions: human, 10 μM, pH 7
Excerpt: The therapeutic effectiveness of a test compound can be often directly related to its metabolic stability in vivo. The majority of known, marketed drugs are metabolized by a group of enzymes known as P450 enzymes. The S9 fraction of human liver contains all the P450 enzymes and also cytoplasmic enzymes that may be involved in the metabolism of new chemical entities. Metabolism in vitro using human S9 fractions is a standard assay to evaluate relative metabolic stability of new compounds. The test is performed as follows.
Reagents are thawed on ice and combined to make up a Master Mix as follows: Potassium phosphate (100 mM, pH 7), G6P (0.25 mM), G6PDH (2 U/ml), NADPH (1 mM), UDP (0.25 mM), APPS (0.25 mM), and S9 fraction (2 mg/ml). A volume of 498 μl of the Master mix is dispensed into each microcentrifuge tube. A volume of 2 μl of 2.5 mM test compound (final concentration of 10 μM) is dispensed into the center of the lid of the appropriate tube, and the lids gently closed to prevent mixing. Synchronous combination of test compound and master mix is achieved by simultaneous ten times inversion of the tubes, which are then incubated at 37° C. and shaken at 150 rpm for the appropriate incubation times. While incubation is in progress, all 0 time samples are mixed individually by three times inversion followed by the immediate addition of 500 μl ice cold acetonitrile with three times inversion to stop the reaction. Immediately after each 15 minutes and 30 minutes incubation is complete, ice cold acetonitrile is added to each tube and the tubes mixed by three times inversion. All sample tubes are incubated at −80° C. for a minimum of 15 minutes, thawed and remixed by inversion. Aliquots of 650 μl are transferred to Chromatographic Specialties micro-spin filter system tubes (0.2 μm nylon membrane, C618505) and centrifuged at 13,000 rpm for 48 seconds. The sample filtrates are stored at −80° C.
Sample filtrates are analyzed on LCMS, and percent remaining after 15 and 30 minute incubation is calculated relative to the 0 minute incubation.
The metabolic stability of various compounds are summarized in Table 10 as the percent remaining after 15 or 30 minutes incubation with human liver S9 fractions.

[9] = 0.03 mg/kg, 4 days qd, water vehicle
[10] = 0.1 mg/kg, 4 days qd, water vehicle
[11] = 0.3 mg/kg, 4 days qd, water vehicle
[12] = 1 mg/kg, 4 days qd, water vehicle
[13] = 5 mg/kg/day for 4 days, corn oil vehicle, relative to control animals

SMILES	% inhibition of eosinophils [1, 10] [%]	% inhibition of lymphocytes [1, 10] [%]	% inhibition of neutrophils [1, 10] [%]	% inhibition of eosinophils [1, 11] [%]	% inhibition of lymphocytes [1, 11] [%]	% inhibition of neutrophils [1, 11] [%]	% inhibition of eosinophils [1, 12] [%]	% inhibition of lymphocytes [1, 12] [%]	% inhibition of neutrophils [1, 12] [%]	% inhibition of eosinophils [1, 13] [%]	% inhibition of lymphocytes [1, 13] [%]	% inhibition of neutrophils [1, 13] [%]	half-life [2] [h]	bioavailability [2] [%]	half-life [3] [h]	bioavailability [3] [%]	solubility ([4]; solubility at room temperature) [mg/mL]	also measured
C/C=C1/CCC2C3C(CC[C@]12C)[C@@]1(C)CC[C@H](N)CC1[C@@H](O)[C@@H]3O (stereo partly shown) [Compound 28]	29	50	−10	71	85	66	60	70	41	85	124	87	7.5	~100	15	25 to 30	~30 (≈ 90 mM)	% inhibition of eosinophils [1, 9]: 5%; % inhibition of lymphocytes [1, 9]: −5%; % inhibition of neutrophils [1, 9]: −26%
C=C1CCC2C3C(CC[C@]12C)[C@@]1(C)CC[C@H](N)CC1[C@@H](O)[C@@H]3O (stereo partly shown) [Compound 89]	35	2	25	80	70	72	71	6	66	57	64	60	7.5	~100	15	25 to 30	~30 (≈ 93.9 mM)	IC50 [5]: 11.5 µM; Calcium (% inhibition at 20 μM) [6]: 15.0%; solubility ([4]; solubility in water): > 100 mg/mL
C/C=C1/CCC2C3C(CC[C@]12C)[C@@]1(C)CC[C@H](N)CC1[C@@H](O)[C@@H]3O (stereo partly shown) [Compound 83]										67	38	34						inhibition of irritant-induced mouse ear edema [7]: 38%; % remaining after 15 min ([8]; s9, 15 min): 92 ± 19%; % remaining after 30 min ([8]; s9, 30 min): 91 ± 21%
